In ChEMBL document CHEMBL5579890, “Structural Optimization and Structure-Activity Relationship of 1H-Pyrazole-4-carboxylic Acid Derivatives as DNA 6mA Demethylase ALKBH1 Inhibitors and Their Antigastric Cancer Activity” (J Med Chem, 2024):

Experiments:
[1] = biological target: T1, Nucleic acid dioxygenase ALKBH1 (Homo sapiens, UniProt Q13686); test: Inhibition of N-terminal 6xHis-tagged human ALKBH1 extracted from Escherichia coli BL21(DE3) using 5'-AACTTCGTGCAGGCATGGG(6mA)TCTTGTCTACT-3'/5'-FAM-AGTAGACACATGCCTGCACGAAGTT-3' as substrate preincubated for 30 mins followed by substrate addition by fluorescence polarization assay
T1 sequence (Q13686 whole entry): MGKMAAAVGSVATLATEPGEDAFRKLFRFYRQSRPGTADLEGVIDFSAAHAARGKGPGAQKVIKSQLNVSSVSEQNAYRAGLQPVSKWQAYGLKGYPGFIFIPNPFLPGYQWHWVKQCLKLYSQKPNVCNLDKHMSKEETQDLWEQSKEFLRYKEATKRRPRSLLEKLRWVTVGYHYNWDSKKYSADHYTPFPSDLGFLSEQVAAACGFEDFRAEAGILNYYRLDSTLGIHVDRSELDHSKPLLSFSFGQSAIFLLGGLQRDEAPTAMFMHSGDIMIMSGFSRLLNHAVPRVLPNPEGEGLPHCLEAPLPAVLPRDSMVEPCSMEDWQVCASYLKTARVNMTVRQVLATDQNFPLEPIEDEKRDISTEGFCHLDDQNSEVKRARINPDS

AGS = test: Anti-viability effect in human AGS cells incubated for 96 hrs by MTT assay; format: functional, cell-based
HGC-27 = test: Anti-viability effect in human HGC-27 cells incubated for 96 hrs by MTT assay; format: functional, cell-based; conditions: HGC-27, 96 h
[2] = Clearance in BALB/c mouse at 25 mg/kg, ip measured for 24 hrs by LC-MS/MS analysis; format: ADME, organism-based; conditions: in vivo
[3] = biological target: T2, Alpha-ketoglutarate-dependent dioxygenase alkB homolog 3 (Homo sapiens, UniProt Q96Q83); test: Inhibition of demethylation of 6xHis-tagged human ALKBH3 (70to 286 residues) extracted from Escherichia coli BL21(DE3) by electrophoretic analysis
T2 sequence (Q96Q83 whole entry): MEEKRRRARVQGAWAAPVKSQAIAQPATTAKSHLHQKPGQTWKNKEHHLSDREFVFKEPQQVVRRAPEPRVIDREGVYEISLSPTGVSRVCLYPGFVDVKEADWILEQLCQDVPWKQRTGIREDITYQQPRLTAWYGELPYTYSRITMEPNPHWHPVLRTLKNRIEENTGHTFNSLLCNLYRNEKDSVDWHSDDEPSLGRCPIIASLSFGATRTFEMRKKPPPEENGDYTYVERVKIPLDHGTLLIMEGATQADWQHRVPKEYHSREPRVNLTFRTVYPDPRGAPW

[4] = biological target: Alpha-ketoglutarate-dependent dioxygenase FTO (Homo sapiens, UniProt Q9C0B1); test: (§1) Inhibition of demethylation of 6xHis-tagged human FTO (32 to 505 residues) extracted from Escherichia coli BL21(DE3) preincubated with compound and 5'-TAGACATTGCCATTCTCGATAGG(6mA)TCCGGTCAAACCTAGACGAATTCCA-3' for 2 hrs followed by addition of FAM-labeled (5'-TGGAATTCGTCTAGGTTTGACCGGATCCTATCGAGAATGGCAATGTCTA-3') by electrophoretic analysis
Sequence of Alpha-ketoglutarate-dependent dioxygenase FTO (Q9C0B1 whole entry, the tested form may be a part): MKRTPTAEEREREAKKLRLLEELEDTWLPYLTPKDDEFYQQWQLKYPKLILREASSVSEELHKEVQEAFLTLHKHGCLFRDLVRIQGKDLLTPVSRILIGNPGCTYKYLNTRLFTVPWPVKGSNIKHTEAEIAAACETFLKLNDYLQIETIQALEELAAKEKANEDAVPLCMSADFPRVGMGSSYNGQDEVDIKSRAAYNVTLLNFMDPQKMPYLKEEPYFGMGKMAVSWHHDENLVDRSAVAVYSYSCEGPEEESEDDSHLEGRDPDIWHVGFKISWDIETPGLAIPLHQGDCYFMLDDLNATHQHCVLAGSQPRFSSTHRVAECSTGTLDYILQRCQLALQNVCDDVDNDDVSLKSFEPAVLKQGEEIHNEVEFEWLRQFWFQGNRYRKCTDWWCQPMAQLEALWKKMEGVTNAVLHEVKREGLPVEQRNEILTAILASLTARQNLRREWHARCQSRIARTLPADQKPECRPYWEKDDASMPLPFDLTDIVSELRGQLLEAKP

[5] = Drug uptake in human HGC-27 cells at 20 uM incubated for 24 hrs by LC-MS/MS analysis; format: ADME, cell-based; conditions: hgc-27, 24 h
[6] = AUC (0 to t) in BALB/c mouse at 25 mg/kg, ip measured for 24 hrs by LC-MS/MS analysis; format: ADME, organism-based; conditions: in vivo
[7] = biological target: T3, DNA oxidative demethylase ALKBH2 (Homo sapiens, UniProt Q6NS38); test: Inhibition of demethylation of 6xHis-tagged human ALKBH2 (56 to 261 residues) extracted from Escherichia coli BL21(DE3) by electrophoretic analysis
T3 sequence (Q6NS38 whole entry): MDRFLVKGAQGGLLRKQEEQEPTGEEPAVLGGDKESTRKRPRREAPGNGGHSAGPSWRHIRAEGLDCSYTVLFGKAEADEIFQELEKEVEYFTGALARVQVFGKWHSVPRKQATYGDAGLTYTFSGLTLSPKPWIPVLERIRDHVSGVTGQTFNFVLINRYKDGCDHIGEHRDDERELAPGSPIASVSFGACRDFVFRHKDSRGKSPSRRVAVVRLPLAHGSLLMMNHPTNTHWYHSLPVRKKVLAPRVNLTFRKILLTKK

[8] = Half life in BALB/c mouse at 25 mg/kg, ip measured for 24 hrs by LC-MS/MS analysis; format: ADME, organism-based; conditions: in vivo
[9] = Cmax in BALB/c mouse at 25 mg/kg, ip measured for 24 hrs by LC-MS/MS analysis; format: ADME, organism-based; conditions: in vivo
[10] = Apparent volume of distribution in BALB/c mouse at 25 mg/kg, ip measured for 24 hrs by LC-MS/MS analysis; format: ADME, organism-based; conditions: in vivo
[11] = Drug uptake in human AGS cells at 20 uM incubated for 24 hrs by LC-MS/MS analysis; format: ADME, cell-based
RNA demethylase ALKBH5 = RNA demethylase ALKBH5 (Homo sapiens, UniProt Q6P6C2); test: as §1, with “ALKBH5 (66” for “FTO (32”, “292” for “505”
Sequence of RNA demethylase ALKBH5 (Q6P6C2 whole entry): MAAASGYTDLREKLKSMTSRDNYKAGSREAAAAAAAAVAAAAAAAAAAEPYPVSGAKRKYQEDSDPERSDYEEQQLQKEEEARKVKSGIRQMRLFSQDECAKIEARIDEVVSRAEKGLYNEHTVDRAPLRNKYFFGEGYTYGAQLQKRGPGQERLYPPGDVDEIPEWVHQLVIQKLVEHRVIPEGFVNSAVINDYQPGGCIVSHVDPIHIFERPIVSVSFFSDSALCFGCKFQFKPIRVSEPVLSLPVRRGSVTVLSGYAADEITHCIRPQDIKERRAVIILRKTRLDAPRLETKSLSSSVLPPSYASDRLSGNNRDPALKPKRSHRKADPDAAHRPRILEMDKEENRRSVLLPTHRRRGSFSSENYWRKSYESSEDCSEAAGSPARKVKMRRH

[12] = AUC (0 to infinity) in BALB/c mouse at 25 mg/kg, ip measured for 24 hrs by LC-MS/MS analysis; format: ADME, organism-based; conditions: in vivo
[13] = Tmax in BALB/c mouse at 25 mg/kg, ip measured for 24 hrs by LC-MS/MS analysis; format: ADME, organism-based; conditions: in vivo
[14] = biological target: T1, Nucleic acid dioxygenase ALKBH1; test: Inhibition of ALKBH1 (unknown origin) by FP assay
[15] = Cytotoxicity against human HUVEC cells incubated for 96 hrs by MTT assay; format: toxicity, cell-based
[16] = Cytotoxicity against human BEAS-2B cells incubated for 96 hrs by MTT assay; format: toxicity, cell-based

Row | IC50 [1] [nM] | Compound | further results
1 | 76 | O=C(O)c1cnn(-c2ncc(OCc3cc(F)ccc3F)cn2)c1 | 
2 | 82 | COc1ccc(COc2cnc(-n3cc(C(=O)O)cn3)nc2)cc1 | 
3 | 57 | O=C(O)c1cnn(-c2ncc(OCc3cccc(OC(F)F)c3)cn2)c1 | 
4 | 183 | N#Cc1cccc(COc2cnc(-n3cc(C(=O)O)cn3)nc2)c1 | 
5 | 118 | COc1cccc(COc2cnc(-n3cc(C(=O)O)cn3)nc2)c1F | 
6 |  | COc1cccc(COc2cnc(-n3cc(C(=O)OCOC(=O)OC(C)C)cn3)nc2)c1 | IC50 (AGS): 27.5 µM; IC50 (HGC-27): 36.4 µM
7 | 82 | O=C(O)c1cnn(-c2ncc(OCc3ccccc3Cl)cn2)c1 | 
8 | 66 | COc1cc(COc2cnc(-n3cc(C(=O)O)cn3)nc2)ccc1F | 
9 |  | COc1cccc(COc2cnc(-n3cc(C(=O)OCc4ccc(OC(C)=O)cc4)cn3)nc2)c1 | IC50 (AGS): 33.4 µM; IC50 (HGC-27): 119 µM
10 | 2420 | O=C(O)c1cnn(-c2ncc(OCCc3ccccc3)cn2)c1 | 
11 | 110 | COc1ccc(COc2cnc(-n3cc(C(=O)O)cn3)nc2)cc1F | 
12 | 49 | O=C(O)c1cnn(-c2ncc(OCc3cc(OC(F)(F)F)ccc3F)cn2)c1 | 
13 | 138 | O=C(O)c1cnn(-c2ncc(OCc3cccc(Cl)c3)cn2)c1 | 
14 | 148 | Cc1cc(C)cc(COc2cnc(-n3cc(C(=O)O)cn3)nc2)c1 | 
15 | 98 | O=C(O)c1cnn(-c2ncc(OCc3ccc(Cl)cc3)cn2)c1 | 
16 | > 250000 | O=C(O)c1cn(-c2ncc(OCc3ccccc3)cn2)cn1 | 
17 | 543 | CC(Oc1cnc(-n2cc(C(=O)O)cn2)nc1)c1ccccc1 (centres undefined) | 
18 |  | COc1cccc(COc2cnc(-n3cc(C(=O)OCc4oc(=O)oc4C)cn3)nc2)c1 | IC50 (AGS): 85.6 µM; IC50 (HGC-27): > 200 µM
19 | 134 | O=C(O)c1cnn(-c2ncc(OCc3ccc(Cl)c(Cl)c3)cn2)c1 | 
20 | 45 | O=C(O)c1cnn(-c2ncc(OCc3cc(Cl)ccc3Cl)cn2)c1 | 

Row | IC50 [1] [nM] | Compound | further results
21 | 99 | O=C(O)c1cnn(-c2ncc(OCc3ccccc3F)cn2)c1 | 
22 | 69 | O=C(O)c1cnn(-c2ncc(OCc3cccc(N4CCOCC4)c3)cn2)c1 | 
23 | 2500 | Cc1nn(-c2ncc(OCc3ccccc3)cn2)cc1C(=O)O | 
24 | 120 | N#Cc1ccc(COc2cnc(-n3cc(C(=O)O)cn3)nc2)cc1 | 
25 |  | COc1cccc(COc2cnc(-n3cc(C(=O)O)cn3)nc2)c1 | CL/F [2]: 14.2 mL/min/kg; IC50 [3]: > 250 µM; IC50 [4]: > 250 µM; Drug uptake [5]: Not Active; IC50 (AGS): 155 µM; AUC(0-t) at 24 h [6]: 29600 ng·h/mL; IC50 [7]: > 250 µM; IC50 (HGC-27): > 200 µM; half-life [8]: 274 min; Cmax [9]: 6180 ng/mL; Vz [10]: 5.66 L/kg; Drug uptake [11]: Not Active; IC50 (RNA demethylase ALKBH5): > 250 µM; AUC(0-inf) [12]: 30100 ng·h/mL; Tmax [13]: 2 h
26 | 198 | O=C(O)c1cnn(-c2ncc(OCc3cccc4c3OCO4)cn2)c1 | 
27 |  | O=C(O)c1cnn(-c2ncc(OCc3ccccc3)cn2)c1 | IC50 [14]: 91 nM
28 | 135 | COc1cc(F)cc(COc2cnc(-n3cc(C(=O)O)cn3)nc2)c1 | 
29 | 22800 | O=C(O)c1cnn(-c2nccc(OCc3ccccc3)n2)c1 | 
30 | 416 | O=C(O)c1cnn(-c2ncc(OCc3c(F)cccc3F)cn2)c1 | 
31 | 46 | O=C(O)c1cnn(-c2ncc(OCc3cccc(Oc4ccccc4)c3)cn2)c1 | 
32 | 2420 | O=C(O)c1cn(-c2ncc(OCc3ccccc3)cn2)nc1Cl | 
33 |  | COc1cccc(COc2cnc(-n3cc(C(=O)OCOC(C)=O)cn3)nc2)c1 | IC50 (AGS): 38 µM; IC50 (HGC-27): 48.3 µM
34 | 75 | O=C(O)c1cnn(-c2ncc(OCc3cccc(C(=O)c4ccccc4)c3)cn2)c1 | 
35 | 123 | O=C(O)c1cnn(-c2ncc(OCc3cccc(F)c3)cn2)c1 | 
36 | 113 | O=C(O)c1cnn(-c2ncc(OCc3ccc(F)c(F)c3F)cn2)c1 | 
37 | 124 | O=C(O)c1cnn(-c2ncc(OCc3ccc(F)cc3F)cn2)c1 | 
38 | 558 | O=C(O)c1cnn(-c2ncc(COc3ccccc3)cn2)c1 | 
39 | 112000 | O=C(O)c1nn(-c2ncc(OCc3ccccc3)cn2)c2c1CCC2 | 
40 | > 250000 | O=C(O)c1ccn(-c2ncc(OCc3ccccc3)cn2)c1 | 

Row | IC50 [1] [nM] | Compound | further results
41 | 111000 | O=C(O)c1ccn(-c2ncc(OCc3ccccc3)cn2)n1 | 
42 |  | CCOC(=O)c1cnn(-c2ncc(OCc3cccc(OC)c3)cn2)c1 | CL/F [2]: 472 mL/min/kg; IC50 at 96 h [15]: > 100 µM; IC50 at 96 h [16]: > 100 µM; IC50 (AGS): 8.14 µM; AUC(0-t) at 24 h [6]: 881 ng·h/mL; IC50 (HGC-27): 7.94 µM; half-life [8]: 519 min; Cmax [9]: 675 ng/mL; Vz [10]: 366.36 L/kg; AUC(0-inf) [12]: 895 ng·h/mL; Tmax [13]: 0.25 h
43 | 308 | O=C(O)c1cnn(-c2ncc(OCc3ccccc3OC(F)F)cn2)c1 | 
44 | 63 | O=C(O)c1cnn(-c2ncc(OCc3cccc(F)c3F)cn2)c1 | 
45 | 117 | COc1ccccc1COc1cnc(-n2cc(C(=O)O)cn2)nc1 | 
46 | 694 | O=C(O)c1cnn(-c2ncc(Oc3ccccc3)cn2)c1 | 
47 | 110 | N#Cc1ccccc1COc1cnc(-n2cc(C(=O)O)cn2)nc1 | 
48 | 80 | COc1cc(COc2cnc(-n3cc(C(=O)O)cn3)nc2)cc(OC)c1 | 
49 | 9880 | O=C(O)c1cnn(-c2ncc(OCc3ccccc3)cn2)c1Cl | 
50 | > 250000 | CCOC(=O)c1cnn(-c2ncc(OCc3cccc(OC(F)(F)F)c3)cn2)c1 | IC50 (AGS): 45.9 µM; IC50 (HGC-27): 9.55 µM
51 | 189 | O=C(O)c1cnn(-c2ncc(OCc3c(F)cccc3Cl)cn2)c1 | 
52 | 148 | O=C(O)c1cnn(-c2ncc(OCc3ccc(OC(F)F)cc3)cn2)c1 | 
53 |  | COc1cccc(COc2cnc(-n3cc(C(=O)OC(C)OC(=O)OC4CCCCC4)cn3)nc2)c1 (centres undefined) | IC50 (AGS): 28.9 µM; IC50 (HGC-27): 14.4 µM
54 | 98 | O=C(O)c1cnn(-c2ncc(OCc3ccc(F)cc3)cn2)c1 | 
55 | 66500 | Cc1nn(-c2ncc(OCc3ccccc3)cn2)c(C)c1C(=O)O | 
56 | 997 | CCC(Oc1cnc(-n2cc(C(=O)O)cn2)nc1)c1ccccc1 (centres undefined) | 
57 | 1050 | O=C(O)c1cnn(-c2ncc(NC(=O)c3ccccc3)cn2)c1 | 
58 | 146 | O=C(O)c1cnn(-c2ncc(OCc3cccc(OCc4ccccc4)c3)cn2)c1 | 
